Results published in US9241486B2, “Combination and methods for controlling turfgrass pests” (Bayer CropScience LP, priority 2012, dated 2016).

How the values were obtained:
Type in all cases: in vivo
[1] = system: Southern Chinch Bug (Blissus insularis); experiment: Field plot trial on St. Augustine grass infested with Southern Chinch Bug, number of live bugs (Example 1); conditions: for Number of Chinch bugs 0 Days After Application / Number of Chinch bugs 4 Days After Application / Number of chinch bugs 7 Days After Application / Number of chinch bugs 18 Days After Application: spray, 40 gallons water per acre, spirotetramat 111 g/ha, azadirachtin 222 g/ha, imidacloprid + azadirachtin 111 + 222 g/ha; for Control of Southern chinch bugs (in words): Example 1, summary of Table 1
Experimental: Plots approximately 6 feet by 10 feet with three replicates and planted with St. Augustine grass are infested with the Southern Chinch Bug (Blissus insularis). Using a sprayer (research back pack sprayers), Spirotetramat (MOVENTO 240 SC) on its own, azadirachtin (AZATIN XL) on its own, and a mixture of imidacloprid (MERIT 240 SC) and azadirachtin, are applied at the application rates specified. The water application rate is 40 gallons per acre. The evaluation is performed 0 days, 4 days, 7 days, and 18 days after the treatment by determining the number of live Southern Chinch Bugs.

St. Augustine grass = experiment: Chlorophyll content of St. Augustine grass infected with Southern chinch bug (Example 2); conditions: Allectus 1083 g ai/ha total, imidacloprid 448.8 g ai/ha, spirotetramat 175.8 g ai/ha, mixture 175.8 + 448.8 g ai/ha; for Chlorophyll Content 5 days: 5 days after treatment; for Chlorophyll Content 13 days: 13 days after treatment; for Chlorophyll Content 41 days: 41 days after treatment; for Chlorophyll Content 58 days: 58 days after treatment
Excerpt: (§1) Plots approximately 30 ft by 10 ft with 3 replicates and planted with St. Augustine grass are infected with Southern chinch bug (Blissus insularis). Using a pneumatic sprayer, a mixture of the spirotetramat (MOVENTO 240 SC) and imidacloprid (MERIT 240 SC) is applied in comparision to the spirotetramat (MOVENTO 240 SC) on its own, the imidacloprid (MERIT 240 SC) on its own, and the gold standard Pyrethrin treatment ALLECTUS™ (imidacloprid+bifenthrin), at the application rates specified. The water application rate is 40 gallons per acre. The evaluation is performed 0 days, 5 days, 13 days, 29 days, 41 days, and 58 days after the treatment by determining the number of chinch bugs and the chlorophyll content of the grass. The higher the chlorophyll content of the grass, the greener and lusher the grass is.

[2] = system: Southern Chinch Bug (Blissus insularis); experiment: Field plot trial on St. Augustine grass infected with Southern chinch bug, number of chinch bugs (Example 2); conditions: for Number of chinch bugs at 0 Days / Number of chinch bugs at 5 days / Number of chinch bugs at 13 days / Number of chinch bugs at 29 days / Number of chinch bugs at 41 days / Number of chinch bugs at 58 days: Allectus 1083 g ai/ha total, imidacloprid 448.8 g ai/ha, spirotetramat 175.8 g ai/ha, mixture 175.8 + 448.8 g ai/ha; for Number of chinch bugs at 5 days: 5 days after treatment; for Number of chinch bugs at 13 days: 13 days after treatment; for Number of chinch bugs at 29 days: 29 days after treatment; for Number of chinch bugs at 41 days: 41 days after treatment; for Number of chinch bugs at 58 days: 58 days after treatment; for Control of Southern chinch bugs (in words): Example 2, summary of Table 2, up to 58 days after treatment
Excerpt: as §1

SMILES	Number of Chinch bugs 0 Days After Application [1]	Number of Chinch bugs 4 Days After Application [1]	Number of chinch bugs 7 Days After Application [1]	Number of chinch bugs 18 Days After Application [1]	Control of Southern chinch bugs (in words) [1]	Chlorophyll Content 5 days (St. Augustine grass)	Chlorophyll Content 13 days (St. Augustine grass)	Chlorophyll Content 41 days (St. Augustine grass)	Chlorophyll Content 58 days (St. Augustine grass)	Number of chinch bugs at 0 Days [2]	Number of chinch bugs at 5 days [2]	Number of chinch bugs at 13 days [2]	Number of chinch bugs at 29 days [2]	Number of chinch bugs at 41 days [2]	Number of chinch bugs at 58 days [2]	Control of Southern chinch bugs (in words) [2]
CCOC(=O)OC1=C(c2cc(C)ccc2C)C(=O)N[C@]12CC[C@@H](OC)CC2 [Spirotetramat]	6	12	6	10	none of the compounds provided good control	3.338	3.250	2.292	2.149	50	45	73	45	83	26	neither spirotetramat or imidacloprid alone provided good control
O=[N+]([O-])/N=C1\NCCN1Cc1ccc(Cl)nc1 [Imidacloprid, imidacloprid]	–	–	–	–	none of the compounds provided good control	2.733	3.215	3.185	3.250	50	19	41	30	65	9	neither spirotetramat or imidacloprid alone provided good control
C/C=C(\C)C(=O)O[C@H]1C[C@@H](OC(C)=O)[C@@]2(C(=O)OC)CO[C@H]3[C@@H](O)[C@@](C)([C@]45O[C@@]4(C)[C@H]4C[C@@H]5O[C@@H]5OC=C[C@@]54O)[C@H]4[C@]1(CO[C@]4(O)C(=O)OC)[C@@H]32 [Azadirachtin, azadirachtin]	12	15	5	11	–	–	–	–	–	–	–	–	–	–	–	–
